Legend:
[1] = molecular target: homomeric ρ1 GABAC receptor (GABAρ1) (Homo sapiens, UniProt P24046); assay: two-electrode voltage clamp in Xenopus oocytes, potentiation of GABA current; format: cell-based; conditions: 3000 µM, GABA 0.3 μM, pH 7.0, -70 mV
[2] = molecular target: α1β2 GABAA receptor (Rattus norvegicus, UniProt P62813+P63138); assay: whole-cell patch clamp in HEK […] cells, potentiation of GABA current; format: cell-based; conditions: GABA 1 μM (EC50); pH 7.4; -60 mV; positive modulator
α1β2 GABAA receptor, sequence (P62813 28-455): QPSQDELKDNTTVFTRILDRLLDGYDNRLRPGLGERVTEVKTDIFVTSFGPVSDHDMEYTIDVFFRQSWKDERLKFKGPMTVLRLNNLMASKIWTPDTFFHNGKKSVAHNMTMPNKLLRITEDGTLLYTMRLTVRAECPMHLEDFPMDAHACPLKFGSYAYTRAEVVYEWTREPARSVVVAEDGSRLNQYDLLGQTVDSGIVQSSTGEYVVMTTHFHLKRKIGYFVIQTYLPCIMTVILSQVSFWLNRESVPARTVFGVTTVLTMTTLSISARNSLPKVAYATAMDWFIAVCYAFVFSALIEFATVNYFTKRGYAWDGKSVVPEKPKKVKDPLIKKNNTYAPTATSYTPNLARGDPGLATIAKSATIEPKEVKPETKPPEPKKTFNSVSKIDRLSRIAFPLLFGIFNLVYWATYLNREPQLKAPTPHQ
α1β2 GABAA receptor, sequence (P63138 26-474): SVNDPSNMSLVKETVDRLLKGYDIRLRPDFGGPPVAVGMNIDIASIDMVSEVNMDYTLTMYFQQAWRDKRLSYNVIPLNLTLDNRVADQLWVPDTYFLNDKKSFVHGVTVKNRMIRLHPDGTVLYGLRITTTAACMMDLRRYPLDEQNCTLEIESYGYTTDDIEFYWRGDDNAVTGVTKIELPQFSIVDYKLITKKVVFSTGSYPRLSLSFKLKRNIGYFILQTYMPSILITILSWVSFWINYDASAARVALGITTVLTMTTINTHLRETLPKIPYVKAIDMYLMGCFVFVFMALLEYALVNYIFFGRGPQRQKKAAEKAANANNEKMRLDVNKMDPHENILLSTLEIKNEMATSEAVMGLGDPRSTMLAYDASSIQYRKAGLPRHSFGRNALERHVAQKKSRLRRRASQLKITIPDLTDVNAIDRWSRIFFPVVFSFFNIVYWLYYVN

homomeric ρ1 GABAC receptor (GABAρ1), sequence (P24046 22-479): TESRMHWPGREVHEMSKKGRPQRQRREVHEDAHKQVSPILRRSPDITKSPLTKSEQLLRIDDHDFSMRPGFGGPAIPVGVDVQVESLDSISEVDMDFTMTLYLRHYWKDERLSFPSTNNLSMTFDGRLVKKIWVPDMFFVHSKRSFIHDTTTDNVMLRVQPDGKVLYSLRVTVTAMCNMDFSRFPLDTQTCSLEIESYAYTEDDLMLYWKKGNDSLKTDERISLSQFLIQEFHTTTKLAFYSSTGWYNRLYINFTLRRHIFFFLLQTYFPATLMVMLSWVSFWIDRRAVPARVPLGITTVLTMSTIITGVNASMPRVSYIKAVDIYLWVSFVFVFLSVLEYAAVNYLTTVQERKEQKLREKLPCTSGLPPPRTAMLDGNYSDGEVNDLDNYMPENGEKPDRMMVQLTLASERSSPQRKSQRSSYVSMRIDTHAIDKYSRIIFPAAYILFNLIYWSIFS

Row | % Potentiation ([1]; positive allosteric modulator) [%] | % potentiation at 10 mM [2] | % Potentiation [1] [%] | SMILES
1 | 139.5 ± 87.5 | ~ 600% | – | O=C1O[C@H]([C@@H](O)CO)C(O)=C1O [Asc, Ascorbic acid]
2 | 33.5 ± 12.5 | – | – | O=C1O[C@H]([C@H](O)CO)C(O)=C1O [D-isoAsc, D-isoascorbic acid]
3 | – | – | -1.6 ± 4.2 | O=C1O[C@H]([C@@H](O)CO)C(=O)C1=O [DHA, L-dehydroascorbic acid]

— publication PMC3160198 (The Journal of neuroscience : the official journal of the …, 2011)
